Assays:
[1] = Ethyl glucuronide levels in postmortem urine by SPE and HPLC-PED; set-up: species or system human; settings: in vivo
Protocol: A ternary gradient solvent delivery pump 106 (Model 8800; Spectra Physics, Mountain View, Calif.) equipped with mixing chamber 104 and on-line degasser unit 102 (Model KT-35M; Shodex, Clear Brook, Va.) were used to provide solvent delivery to analytical column 110. In certain embodiments, isocratic separations are performed using a 1% acetic acid/water:acetonitrile (98:2, v/v) mobile phase set to a flow rate of 1.0 mL ? min-1. Injection valve 108 (Model 7010; Rheodyne, Rohnert Park, Calif.) is fitted with a 50 μL injection loop. Separations can be performed using any suitable analytical column, selected based upon the glucuronide(s) of interest. For example, a reversed-phase (C18; 250×4.6 mm, 5 μm, 100 Å) Denali column (Vydac, Columbia, Md.) with guard column (C18; 7.5×4.6 mm, 5 μm; Vydac) can be used, or a bonded-phase silica column comprising a C18 functional group bonded to its surface using a sulfonamide group coupled to an ether linkage (DIONEX® PA column, DIONEX®, Sunnyvale, Calif.) can be used. Post-column addition of NaOH 112 (for example, 600 mM NaOH), necessary to promote PED-activity, was accomplished by a reagent delivery module (RDM, Dionex, Sunnyvale, Calif.). […]
All urine samples (1.0 mL) were pretreated with 100 μL of 3 M HCl and 3 mL acetonitrile. […] The reconstituted solution was diluted further to bring EtG within the linear range of quantitation. […]

[2] = after alcohol consumption; cited from earlier work

## CCO[C@@H]1O[C@H](C(=O)O)[C@@H](O)[C@H](O)[C@H]1O [EtG, Ethyl glucuronide]
[1]
  EtG levels in postmortem samples: 3 to 700 µg/mL
[2]
  period of detection after the complete elimination of alcohol from the body: up to 80 h
